Measurements from PMC13233820, “Recruitment of Mre11 to recombination sites during meiosis” (Nature Communications, 2026).

Key:
pUC19 plasmid substrate = test: Gel shift assay, plasmid DNA binding; conditions: 1 nM pUC19; reduced-mobility complexes (supershift) at higher concentration
Experimental: Proteins were diluted to their appropriate working concentrations in their respective storage buffers. […] Reactions were assembled at 30 °C for 30 mins and resolved in a 1% agarose (SeaKem LE Agarose, Lonza) at 60 V for 120 mins at 4 °C. Gels were stained with SYBR Gold Nucleic Acid Gel Stain (S11497, Invitrogen) for 40 mins and visualized with Amersham Typhoon biomolecular imager (Cytiva).

Mer2 condensates = test: Colocalization of fluorescently-labeled Mer2 and Mre11 condensates; assay type: binding, Saccharomyces cerevisiae; conditions: condensates assembled separately on DNA then incubated together
Experimental: Fig. 4 Mer2 recruits Mre11 during meiosis. a Effect of 1,6-hexanediol treatment on meiotic Mre11^myc foci visualized by immunofluorescence analysis of yeast nuclear spreads 4 hours after transfer to SPM. […] At least 22 tetrads were dissected for each strain (n ≥ 88 spores). e Quantification of sub-population of cells showing discrete Mre11 foci and aggregated Mre11 foci in indicated strains. Images used for analysis were from the same experiments in (b) and (d). f Colocalization of fluorescently-labeled Mer2 with wild-type or truncated Mre11. […] The number of images analyzed for each sample were WT (n = 11), Mre11^Δ10-270 (n = 13), Mre11^Δ290-472 (n = 15), Mre11^ΔIDR (n = 10), Mre11^ΔC49 (n = 13). Error bars represent mean ± SD from the indicated (n) fields of view. p-values compared to Mre11-WT are: Mre11^Δ10-270 (0.006), Mre11^Δ290-472 (0.0003), Mre11^ΔIDR (<0.0001), Mre11^ΔC49 (<0.0001). g Colocalization of fluorescently-labeled Mre11-C49 and Mer2. Condensates were assembled by mixing 800 nM of ^mScarletMre11-C49 and 200 nM of ^eGFPMer2 for 30 min prior to imaging. […]
Proteins were diluted to a 10 × stock of their appropriate working concentrations in their respective storage buffers. […] Images were analyzed with ImageJ using a custom-made script. […] Masked foci were counted, and the intensity inside the focus mask was integrated. […] Data were analyzed using Graphpad Prism 10.4.0.

[1] = system: supercoiled pUC19 plasmid DNA; test: In vitro condensation assay of Mre11 (fluorescence microscopy); assay type: biochemical
Experimental: Fig. 1 Mre11 and the MRX complex assemble DNA-dependent condensates in vitro. a, c Effect of the presence of plasmid DNA on condensation of (a) Alexa488-labeled Mre11 (n = 11 and 9 fields of view for reactions without and with DNA, respectively) and (c) eGFP-tagged MRX (n = 11 (- DNA) and 9 ( + DNA)). Experiments were performed without PEG. b, d Effect of DNase I, in the absence of PEG, on (b) Mre11 (n = 9 (no treatment) and 11 (DNase I)) and (d) MRX (n = 9 (no treatment) and 11 (DNase I)) condensates. Condensates were pre-assembled for 20 min with 5.7 nM pUC19 prior to challenge. Quantification represents total foci intensity (green) in a field of view and total number of foci per 1000 µm^2 (magenta). Foci intensity is normalized to the mean intensity of samples with DNA for (a, c) and untreated samples for (b, d). […] Quantification represents total foci intensity (green) in a field of view (normalized to the mean of + PEG images) and total number of foci per 1000 µm^2 (magenta). […]
Fig. 2 The C-terminal IDR of Mre11 is required for condensation. a AlphaFold2 predicted model of Mre11 (AF-P32829-F1-v4). […] Quantification represents total fluorescence intensity (green) in a field of view and total number of foci per 1000 µm^2 (magenta). […]

Mre11: full-length yeast Mre11 nuclease, recombinant from Sf9 cells
Protein concentration up to which fast-migrating complexes form (pUC19 plasmid substrate): ~25 nM
Colocalization with Mer2 condensates (in words) (Mer2 condensates): nearly absolute colocalization
Condensate formation (in words) ([1]; in the presence of plasmid DNA): form large clusters visible by fluorescence microscopy
Protein concentration above which foci intensity steeply increases ([1]; protein titration, plasmid DNA, 5% PEG): above 200 nM
